From US9890139B2, “CYP17 inhibitors/antiandrogens” (Orion Corporation, priority 2013, dated 2018)
Read-outs that look alike come from different tables or passages of the source.

Experiments:
full-length human AR = biological target: T1, full-length human AR (Homo sapiens, UniProt P10275); assay: AR antagonism, reporter gene assay in hAR/HEK293 cells; type: cell-based; settings: HEK293 cells stably transfected with full-length human AR and androgen responsive luciferase reporter; co-treated with submaximal testosterone (usually 0.45 nM); 1% DMSO; triplicates
T1 construct: expression vector encoding full-length human AR; expressed in transfected cells; host or cells: HEK293 (hAR/HEK293 cells)
T1 sequence (P10275 1-920): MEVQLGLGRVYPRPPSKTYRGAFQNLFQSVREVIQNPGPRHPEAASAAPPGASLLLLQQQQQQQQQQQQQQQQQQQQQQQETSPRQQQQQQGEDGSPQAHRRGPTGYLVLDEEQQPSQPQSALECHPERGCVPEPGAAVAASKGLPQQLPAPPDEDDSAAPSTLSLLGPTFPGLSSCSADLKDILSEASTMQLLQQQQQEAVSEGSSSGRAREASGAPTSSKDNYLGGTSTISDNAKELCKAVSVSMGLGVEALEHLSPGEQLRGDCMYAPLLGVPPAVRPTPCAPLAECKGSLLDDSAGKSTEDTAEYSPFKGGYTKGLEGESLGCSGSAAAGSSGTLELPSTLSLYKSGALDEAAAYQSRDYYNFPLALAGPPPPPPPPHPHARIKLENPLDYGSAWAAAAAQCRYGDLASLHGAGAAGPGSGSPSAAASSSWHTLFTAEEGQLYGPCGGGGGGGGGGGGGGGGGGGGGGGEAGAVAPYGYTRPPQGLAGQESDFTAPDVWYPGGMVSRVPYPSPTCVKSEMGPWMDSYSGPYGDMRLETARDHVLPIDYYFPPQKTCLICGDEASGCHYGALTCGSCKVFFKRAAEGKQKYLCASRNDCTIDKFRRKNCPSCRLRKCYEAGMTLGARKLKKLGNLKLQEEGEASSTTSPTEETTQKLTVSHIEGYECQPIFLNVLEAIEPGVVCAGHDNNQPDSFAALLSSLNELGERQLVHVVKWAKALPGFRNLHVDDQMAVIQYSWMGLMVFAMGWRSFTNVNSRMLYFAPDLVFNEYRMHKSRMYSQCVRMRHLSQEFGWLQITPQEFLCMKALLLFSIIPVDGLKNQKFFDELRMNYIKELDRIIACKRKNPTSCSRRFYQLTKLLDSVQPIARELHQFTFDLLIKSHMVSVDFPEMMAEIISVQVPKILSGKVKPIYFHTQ
Experimental: Antagonism of test compounds for AR was measured by reporter gene assay in human embryonic kidney (HEK293) cells stably transfected with an expression vector encoding full-length human AR and androgen responsive luciferase reporter gene construct (hAR/HEK293 cells). To determine antagonism for hAR, the cells were treated simultaneously with increasing concentrations of the test compound and submaximal concentration of testosterone (usually 0.45 nM). The final DMSO concentration was 1%. All test compounds were studied in triplicates. The cells were incubated for […] before measurement of luciferase activity using Luciferase Assay System (Promega Corporation).

17,20 lyase (CYP17) = biological target: T2, 17,20 lyase (CYP17) (Homo sapiens, UniProt P05093); assay: 17,20 lyase (CYP17) inhibition, acetic acid release assay (AARA) on H295R cells; type: cell-based
T2 construct: endogenous in cells; host or cells: H295R human adrenocortical carcinoma cells
T2 sequence (P05093 1-508): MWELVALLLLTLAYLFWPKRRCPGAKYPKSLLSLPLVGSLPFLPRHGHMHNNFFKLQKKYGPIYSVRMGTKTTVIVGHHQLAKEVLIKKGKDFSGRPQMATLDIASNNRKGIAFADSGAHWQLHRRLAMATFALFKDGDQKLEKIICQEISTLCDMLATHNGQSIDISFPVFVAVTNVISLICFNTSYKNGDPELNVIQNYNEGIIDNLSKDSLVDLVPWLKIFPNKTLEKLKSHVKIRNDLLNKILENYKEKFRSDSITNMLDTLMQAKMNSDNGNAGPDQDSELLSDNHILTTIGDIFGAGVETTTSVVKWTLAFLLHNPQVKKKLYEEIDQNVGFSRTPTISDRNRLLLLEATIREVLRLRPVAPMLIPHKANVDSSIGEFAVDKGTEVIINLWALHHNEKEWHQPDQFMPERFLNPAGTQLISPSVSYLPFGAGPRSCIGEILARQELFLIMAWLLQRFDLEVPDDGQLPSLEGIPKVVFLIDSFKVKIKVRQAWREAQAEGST
Experimental: The ability of the test compounds to inhibit 17,20 lyase catalysed conversion of 17α-hydroxypregnenolone to dehydroepiandrosterone and acetic acid was measured by acetic acid release assay (AARA) on human H295R adrenocortical carcinoma cell line (Grigoryev, D. N. et al., Analytical Biochemistry 1999; 267:319-330). […] The final DMSO concentration was 1%. Cell culture medium was extracted with dextran-coated charcoal suspension (Isomaa, V. et al., Endocrinology 1982; 111(3):833-843). ^3H-acetic acid was determined by mixing 100 μl of supernatant fraction in 200 μl of scintillation fluid (OptiPhase SuperMix, Perkin Elmer). Radioactivity was measured using a Microbeta scintillation counter (1450 MicroBeta Trilux, Wallac). All the test compounds were studied in quadruplicates.

[1] = human H295R adrenocortical carcinoma cells, overnight (16-19 h) with 17α-[21-3H]hydroxypregnenolone, 3H-acetic acid release, 1% DMSO, quadruplicates, read-out: CYP17 inhibition IC50

IC50 (17,20 lyase (CYP17); [1])	Compound	IC50 (full-length human AR)	IC50 (17,20 lyase (CYP17))
	CCN(c1ccc(C#N)c(C(F)(F)F)c1)C1CC=C(c2cncn2C2CC2)C1 (racemic) [Ex. 53, 4-((3-(1-Cyclopropyl-1H-imidazol-5-yl)cyclopent-3-enyl)(ethyl)amino)-2-(trifluoromethyl)benzonitrile]	57 nM	19 nM
14 nM	CN(c1ccc(C#N)c(C(F)(F)F)c1)C1C=C(n2ccnc2)CCC1(C)C (racemic) [Ex. 130 racemate, 4-{[3-(1H-Imidazol-1-yl)-6,6-dimethylcyclohex-2-enyl](methyl)amino}-2-(trifluoromethyl)benzonitrile]	65 nM	
	CCn1cncc1C1=CCC(N(CC2CC2)c2ccc(C#N)c(C(F)(F)F)c2)C1 (racemic) [Ex. 226 racemate, 4-((Cyclopropylmethyl)(3-(1-ethyl-1H-imidazol-5-yl)cyclopent-3-en-1-yl)-amino)-2-(trifluoromethyl)benzonitrile]	29 nM	43 nM
	CCN(c1ccc(C#N)c(Cl)c1)C1CC=C(c2cncn2CC)C1 (racemic) [Ex. 227 racemate, 2-Chloro-4-(ethyl(3-(1-ethyl-1H-imidazol-5-yl)cyclopent-3-en-1-yl)amino)-benzonitrile]	57 nM	19 nM
	CCN(c1ccc(C#N)c(C(F)(F)F)c1)[C@H]1CCC[C@@H](c2ccncc2)C1 (relative stereo) [Ex. 61, cis-4-(Ethyl(3-(pyridin-4-yl)cyclohexyl)amino)-2-(trifluoromethyl)benzonitrile]	35 nM	108 nM
	CN(c1ccc(C#N)c(C(F)(F)F)c1)[C@@H]1C=C(n2ccnc2)[C@H](O)CC1(C)C (relative stereo) [Ex. 236, Cis-4-((4-hydroxy-3-(1H-imidazol-1-yl)-6,6-dimethylcyclohex-2-enyl)-(methyl)amino)-2-(trifluoromethyl)benzonitrile]	124 nM	247 nM
	CCN(c1ccc(C#N)c(Cl)c1C)C1CCCC(n2ccnc2)C1 (single isomer, unassigned) [Ex. 13, 4-((3-(1H-imidazol-1-yl)cyclohexyl)(ethyl)amino)-2-chloro-3-methylbenzonitrile]	60 nM	92 nM
23 nM	CCN(c1ccc(C#N)c(C(F)F)c1)C1C=C(n2ccnc2)CCC1(C)C (single isomer, unassigned) [Ex. 31 enantiomer 1, 4-((3-(1H-imidazol-1-yl)-6,6-dimethylcyclohex-2-enyl)(ethyl)amino)-2-(difluoromethyl)benzonitrile]		
	CCN(c1ccc(C#N)c(C(F)(F)F)c1)C1CC(n2ccnc2)CCC1(C)C (single isomer, unassigned) [Ex. 46 cis-enantiomer 2, 4-((5-(1H-Imidazol-1-yl)-2,2-dimethylcyclohexyl)(ethyl)amino)-2-(trifluoromethyl)benzonitrile]	40 nM	49 nM
97 nM	CN(c1ccc(C#N)c(C(F)(F)F)c1)C1C(O)C(c2c[nH]cn2)=CCC1(C)C (single isomer, unassigned) [Ex. 245, 4-{[2-Hydroxy-3-(1H-imidazol-4-yl)-6,6-dimethylcyclohex-3-enyl](methyl)-amino}-2-(trifluoromethyl)benzonitrile]		
66 nM	CCN(c1ccc(C#N)c(C(F)(F)F)c1)C1CCC=C(c2cccnc2)C1(C)C (stereo not drawn) [Ex. 97, 4-((2,2-dimethyl-3-(pyridin-3-yl)cyclohex-3-en-1-yl)(ethyl)amino)-2-(trifluoromethyl)benzonitrile]		
36 nM	CCN(c1ccc(C#N)c(C(F)(F)F)c1)C1CCC=C(c2c[nH]cn2)C1(C)C (stereo not drawn) [Ex. 100, 4-((3-(1H-imidazol-4-yl)-2,2-dimethylcyclohex-3-en-1-yl)(ethyl)amino)-2-(trifluoromethyl)benzonitrile]		
7 nM	CCN(c1ccc(C#N)c(Cl)c1)C1CC=C(c2c[nH]cn2)C1 (stereo not drawn) [Ex. 133, 4-((3-(1H-Imidazol-4-yl)cyclopent-3-en-1-yl)(ethyl)amino)-2-chlorobenzonitrile]		
17 nM	CCN(c1ccc(C#N)c(C(F)(F)F)c1)C1CC=C(c2c[nH]cn2)C1 (stereo not drawn) [Ex. 150, 4-((3-(1H-imidazol-4-yl)cyclopent-3-en-1-yl)(ethyl)amino)-2-(trifluoromethyl)benzonitrile]		
10 nM	CN(c1ccc(C#N)c(C(F)(F)F)c1)C1C=C(c2cncn2CCOCc2ccccc2)CCC1(C)C (stereo not drawn) [Ex. 220, 4-((3-(1-(2-(benzyloxy)ethyl)-1H-imidazol-5-yl)-6,6-dimethylcyclohex-2-en-1-yl)(methyl)amino)-2-(trifluoromethyl)benzonitrile]		

Compound	IC50 (17,20 lyase (CYP17); [1])	IC50 (full-length human AR)	IC50 (17,20 lyase (CYP17))
CN(c1ccc(C#N)c(Cl)c1)C1CC(c2c[nH]cn2)=CCC1(C)C (single isomer, unassigned) [Ex. 2 enantiomer 1, 4-((3-(1H-imidazol-4-yl)-6,6-dimethylcyclohex-3-enyl)(methyl)amino)-2-chlorobenzonitrile]	27 nM		
CN(c1ccc(C#N)c(C(F)(F)F)c1)C1C=C(n2ccnc2)CCC1 (single isomer, unassigned) [Ex. 6 enantiomer 1, 4-((3-(1H-imidazol-1-yl)cyclohex-2-enyl)(methyl)amino)-2-(trifluoromethyl)benzonitrile]	74 nM		
CN(c1ccc(C#N)c(C(F)(F)F)c1)C1CC(n2ccnc2)CCC1(C)C (single isomer, unassigned) [Ex. 47 cis-enantiomer 3, 4-((5-(1H-Imidazol-1-yl)-2,2-dimethylcyclohexyl)(methyl)amino)-2-(trifluoromethyl)benzonitrile]	18 nM		
CN(c1ccc(C#N)c(C(F)(F)F)c1)C1CC(c2c[nH]cn2)=CCC1(C)C (single isomer, unassigned; diastereomer 1) [Ex. 244 diastereomer 1, 4-{[3-(1H-Imidazol-4-yl)-6,6-dimethylcyclohex-3-enyl](methyl)amino}-2-(trifluoromethyl)benzonitrile]	116 nM		
CCN(c1cc(F)c(C#N)c(F)c1)C1CCCC(n2ccnc2)C1 (single isomer, unassigned; diastereomer 4) [Ex. 12 cis-diastereomer]	18 nM		
CCN(c1ccc(C#N)c(C(F)(F)F)c1)C1CCC(c2cnc[nH]2)C1 (stereo not drawn) [Ex. 219, 4-((3-(1H-imidazol-5-yl)cyclopentyl)(ethyl)amino)-2-(trifluoromethyl)-benzonitrile]	105 nM		
CCN(c1ccc(C#N)c(C(F)(F)F)c1)C1CCCC(c2cnc[nH]2)C1 (stereo not drawn) [Ex. 224 cis-diasteromer, 4-((3-(1H-imidazol-5-yl)cyclohexyl)(ethyl)amino)-2-(trifluoromethyl)benzonitrile]	59 nM		
